The subject of one assay is SARS-CoV-2 strain USA-WA1/2020. The experiment in a line: microbe, parasite or virus in culture. Format: cell-based. To be noted: HeLa-ACE2 cells, SARS-CoV-2 infection, 24 h; read-out: EC50, uM (Hela).
As to “(S)-4-methyl-2-((l- methyl-1H-indole)-5- sulfonamido)-N-((S)- 3-oxo-1-((S)-2- oxopyrrolidin-3-yl)-4- (trifluoromethoxy)butan- 2-yl)pentanamide [Compound 463]”, the EC50 lay in the range of 0.2 to 0.5 µM.

Staying with this assay, now noted: Severe acute respiratory syndrome coronavirus 2, HeLa-ACE2, 24 h, HeLa-ACE2 cells, SARS-CoV-2 infection, 24 h; cells given as a bound; read-out: EC50, uM (Hela).
In the case of `O=C(N[C@@H](C[C@@H]1CCNC1=O)C(=O)COc1c(F)c(F)cc(F)c1F)C1CCN(C(=O)C2CCCC2)CC1` [Compound 27, l-(cyclopentane-carbonyl)-N-((S)-3-oxo-1-((S)-2-oxopyrrolidin-3-yl)-4-(2,3,5,6-tetrafluorophenoxy)butan-2-yl)piperidine-4-carboxamide], the EC50 is more than 1 µM.

Regarding `Cc1ccccc1NC(=O)C(=O)N(C)[C@@H](CC(C)C)C(=O)N[C@@H](C[C@@H]1CCNC1=O)C(=O)COc1c(F)c(F)cc(F)c1F` [Compound 105, N1-methyl-N1-((S)-4-methyl-1-oxo-1-(((S)-3-oxo-1-((S)-2-oxopyrrolidin-3-yl)-4-(2,3,5,6-tetrafluorophenoxy)butan-2-yl)amino)pentan-2-yl)-N2-(o-tolyl)oxalamide], the EC50 is more than 1 µM.

`CC(C)C[C@H](NC(=O)OCCCc1cccc(Cl)c1)C(=O)N[C@@H](C[C@@H]1CCNC1=O)C(=O)COc1c(F)c(F)cc(F)c1F` [Compound 128, 3-(3-chlorophenyl)propyl ((S)-4-methyl-1-oxo-1-(((S)-3-oxo-1-((S)-2-oxopyrrolidin-3-yl)-4-(2,3,5,6-tetrafluorophenoxy)butan-2-yl)amino)pentan-2-yl)carbamate]: the EC50 was more than 1 µM.

The same assay, now with this note: Severe acute respiratory syndrome coronavirus 2, HeLa-ACE2, 24 h, HeLa-ACE2 cells, SARS-CoV-2 infection, 24 h; class symbols; read-out: EC50, uM (Hela).
`CC(C)C[C@H](NC(=O)c1cc2ccccc2[nH]1)C(=O)N[C@@H](C[C@@H]1CCNC1=O)C(=O)COc1c(F)c(F)cc(F)c1F` [Compound 4, N-((S)-4-methyl-1-oxo-1-(((S)-3-oxo-1-((S)-2-oxopyrrolidin-3-yl)-4-(2,3,5,6-tetrafluorophenoxy)butan-2-yl)amino)pentan-2-yl)-1H-indole-2-carboxamide]: the EC50 was less than 0.05 µM. The same measure, in the same setting: the result for `CC(C)C[C@H](NC(=O)c1nc2ccccc2[nH]1)C(=O)N[C@@H](C[C@@H]1CCNC1=O)C(=O)COC(F)(F)F` [Compound 156, N-((S)-4-methyl-1-oxo-1-(((S)-3-oxo-1-((S)-2-oxopyrrolidin-3-yl)-4-(trifluoromethoxy)butan-2-yl)amino)pentan-2-yl)-1H-benzo[d]imidazole-2-carboxamide] reads less than 0.05 µM; that for `CC(C)CC[C@H](NC(=O)c1cc2cc(F)ccc2[nH]1)C(=O)N[C@@H](C[C@@H]1CCNC1=O)C(=O)COc1c(F)c(F)cc(F)c1F` [Compound 11, 5-fluoro-N-((S)-5-methyl-1-oxo-1-(((S)-3-oxo-1-((S)-2-oxopyrrolidin-3-yl)-4-(2,3,5,6-tetrafluorophenoxy)butan-2-yl)amino)hexan-2-yl)-1H-indole-2-carboxamide], 0.2 to 0.5 µM. Still for that read-out and setting: the result for `CC(C)C[C@H](NC(=O)C1OCCC1(F)F)C(=O)N[C@@H](C[C@@H]1CCNC1=O)C(=O)COC(F)(F)F` (stereo partly drawn) [Compound 324, 3,3-difluoro-N-((S)-4-methyl-1-oxo-1-(((S)-3-oxo-1-((S)-2-oxopyrrolidin-3-yl)-4-(trifluoromethoxy)butan-2-yl)amino)pentan-2-yl)tetrahydrofuran-2-carboxamide] reads 0.05 to 0.2 µM; that for `CC(C)C[C@H](NC(=O)Nc1ccccc1F)C(=O)N[C@@H](C[C@@H]1CCNC1=O)C(=O)COc1c(F)c(F)cc(F)c1F` [Compound 84, (S)-2-(3-(2-fluorophenyl)ureido)-4-methyl-N-((S)-3-oxo-1-((S)-2-oxopyrrolidin-3-yl)-4-(2,3,5,6-tetrafluorophenoxy)butan-2-yl)pentanamide], 0.05 to 0.2 µM. On the same count and under the same terms, the result for `CC(C)C[C@H](NC(=O)C(=O)NC1(C(F)(F)F)CC1)C(=O)N[C@@H](C[C@@H]1CCNC1=O)C(=O)COC(F)(F)F` [Compound 237, N1-((S)-4-methyl-1-oxo-1-(((S)-3-oxo-1-((S)-2-oxopyrrolidin-3-yl)-4-(trifluoromethoxy)butan-2-yl)amino)pentan-2-yl)-N2-(1-(trifluoromethyl)-cyclopropyl)oxalamide] reads less than 0.05 µM; that for `CC(C)C[C@H](NC(=O)C(=O)Nc1ccccc1OC(F)F)C(=O)N[C@@H](C[C@@H]1CCNC1=O)C(=O)COc1c(F)c(F)cc(F)c1F` [Compound 62, N1-(2-(difluoromethoxy)-phenyl)-N2-((S)-4-methyl-1-oxo-1-(((S)-3-oxo-1-((S)-2-oxopyrrolidin-3-yl)-4-(2,3,5,6-tetrafluorophenoxy)butan-2-yl)amino)pentan-2-yl)oxalamide], less than 0.05 µM. With `CC1(NC(=O)C(=O)N[C@@H](Cc2ccc(F)cc2)C(=O)N[C@@H](C[C@@H]2CCNC2=O)C(=O)COC(F)(F)F)CC1` [Compound 250, N1-((S)-3-(4-fluorophenyl)-1-oxo-1-(((S)-3-oxo-1-((S)-2-oxopyrrolidin-3-yl)-4-(trifluoromethoxy)butan-2-yl)amino)propan-2-yl)-N2-(1-methylcyclopropyl)-oxalamide], the EC50 is less than 0.05 µM.

Still in this assay, the particulars now being: Severe acute respiratory syndrome coronavirus 2, HeLa-ACE2, 24 h, HeLa-ACE2 cells, SARS-CoV-2 infection, 24 h; read-out: EC50, uM (Hela).
Consider `CC1(NC(=O)C(=O)N2[C@H]3CC[C@H](C3)[C@H]2C(=O)N[C@@H](C[C@@H]2CCNC2=O)C(=O)COC(F)(F)F)CC1` [Compound 546, (1S,3S,4R)-2-(2-((l-methylcyclopropyl)-amino)-2-oxoacetyl)-N-((S)-3-oxo-1-((S)-2-oxopyrrolidin-3-yl)-4-(trifluoromethoxy)butan-2-yl)-2-azabicyclo-[2.2.1]heptane-3-carboxamide], for which the EC50 lay within 0.2 to 0.5 µM. Take `Cc1ccccc1NC(=O)C(=O)N1C[C@H]2[C@@H]([C@H]1C(=O)N[C@@H](C[C@@H]1CCNC1=O)C(=O)COC(F)(F)F)C2(C)C` [Compound 473, (1R,2S,5S)-6,6-dimethyl-N-((S)-3-oxo-1-((S)-2-oxopyrrolidin-3-yl)-4-(trifluoromethoxy)butan-2-yl)-3-(2-oxo-2-(o-tolylamino)acetyl)-3-azabicyclo[3.1.0]hexane-2-carboxamide]: the EC50 was less than 0.05 µM. In the case of `O=C1NCC[C@H]1C[C@H](NC(=O)[C@@H]1[C@H]2CCC[C@H]2CN1C(=O)[C@H](O)c1ccccc1F)C(=O)COC(F)(F)F` [Compound 409, (1S,3aR,6aS)-2-((R)-2-(2-fluorophenyl)-2-hydroxyacetyl)-N-((S)-3-oxo-1-((S)-2-oxopyrrolidin-3-yl)-4-(trifluoromethoxy)butan-2-yl)octahydrocyclo-penta[c]pyrrole-1-carboxamide], the EC50 is less than 0.05 µM.

`COC(=O)N[C@H](C(=O)N1CC2(CC2)C[C@H]1C(=O)N[C@@H](C[C@@H]1CCNC1=O)C(=O)COC(F)(F)F)C(C)(C)C` [Compound 433, methyl ((S)-3,3-dimethyl-1-oxo-1-((S)-6-(((S)-3-oxo-1-((S)-2-oxopyrrolidin-3-yl)-4-(trifluoromethoxy)butan-2-yl)carbamoyl)-5-azaspiro[2.4]heptan-5-yl)butan-2-yl)carbamate]: the EC50 is 0.05 to 0.2 µM. For `O=C1NCC[C@H]1C[C@H](NC(=O)[C@@H]1CC2(CC2)CN1C(=O)c1ccc(F)cc1F)C(=O)COC(F)(F)F` [Compound 710, (S)-5-(2,4-difluorobenzoyl)-N-((S)-3-oxo-l-((S)-2-oxopyrrolidin-3-yl)-4-(trifluoromethoxy)butan-2-yl)-5-azaspiro[2.4]heptane-6-carboxamide], the EC50 is 0.2 to 0.5 µM. Take `CC(C)(C)NC(=O)C(=O)N1CC2(CC1C(=O)N[C@@H](C[C@@H]1CCNC1=O)C(=O)COC(F)(F)F)CC(F)(F)C2` (stereo partly drawn) [Compound 508, 6-(2-(tert-butylamino)-2-oxoacetyl)-2,2-difluoro-N-((S)-3-oxo-1-((S)-2-oxopyrrolidin-3-yl)-4-(trifluoromethoxy)butan-2-yl)-6-azaspiro[3.4]octane-7-carboxamide]: the EC50 is 0.05 to 0.2 µM. Still for that read-out and setting: the result for `CC(F)(F)CCC(=O)N1CC2(CC2)C[C@@H]1C(=O)N[C@H](C[C@@H]1CCNC1=O)C(=O)COC(F)(F)F` [Compound 750, (R)-5-(4,4-difluoropentanoyl)-N-((R)-3-oxo-1-((S)-2-oxopyrrolidin-3-yl)-4-(trifluoromethoxy)butan-2-yl)-5-azaspiro[2.4]heptane-6-carboxamide] reads 0.05 to 0.2 µM.

For the compound `CC[C@@H](NC(=O)OC(C)(C)C)C(=O)N1C[C@H]2[C@@H]([C@H]1C(=O)N[C@@H](CC1CCNC1=O)C(=O)COC(F)(F)F)C2(C)C` (stereo in doubt) [Compound 438, tert-butyl ((R)-1-((1R,2S,5S)-6,6-dimethyl-2-(((S)-3-oxo-1-((S)-2-oxopyrrolidin-3-yl)-4-(trifluoromethoxy)butan-2-yl)carbamoyl)-3-azabicyclo[3.1.0]-hexan-3-yl)-1-oxobutan-2-yl)carbamate], the EC50 is less than 0.05 µM. On to `O=C1NCC[C@H]1C[C@H](NC(=O)[C@@H]1CC2(CC2)CN1C(=O)c1ccc2c(c1)OC(F)(F)O2)C(=O)COC(F)(F)F` [Compound 687, (S)-5-(2,2-difluorobenzo[d][1,3]dioxole-5-carbonyl)-N-((S)-3-oxo-1-((S)-2-oxopyrrolidin-3-yl)-4-(trifluoromethoxy)butan-2-yl)-5-azaspiro[2.4]heptane-6-carboxamide], for which the EC50 is less than 0.05 µM.

Still in this assay, the particulars now being: Severe acute respiratory syndrome coronavirus 2, HeLa-ACE2, 24 h; read-out: EC50, uM (Hela).
Turning to `CC(C)C[C@H](NC(=O)C(=O)Nc1ccc(Br)cc1F)C(=O)N[C@@H](C[C@@H]1CCNC1=O)C(=O)COc1c(F)c(F)cc(F)c1F` [Compound 96, N1-(4-bromo-2-fluorophenyl)-N2-((S)-4-methyl-1-oxo-1-(((S)-3-oxo-1-((S)-2-oxopyrrolidin-3-yl)-4-(2,3,5,6-tetrafluorophenoxy)butan-2-yl)amino)pentan-2-yl)oxalamide], the EC50 fell in the range of 0.05 to 0.2 µM.

A word on the EC50: it is the concentration needed to bring the measured effect to its halfway point.
